Where two headings read alike, the source gives them in different places.
How the values were obtained:
[1] = test system: MV-4-11 (carrying MLL-AF4); test: Inhibition of proliferation of human tumor cells (Alamar Blue, 7 days), MV-4-11; format: cell-based; details: Homo sapiens, MV4-11, 168 h, MV-4-11 cells (carrying MLL-AF4), method calls the value GI50
Procedure, shortened: (§1)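 Cells seeded at 4,000/well (MV-4-11, MOLM-13) or 3,000/well (KG-1a) in serum-supplemented IMDM or RPMI-1640, 37°C, 5% CO2, then exposed to 3- or 4-fold compound dilutions in duplicate for 7 days. Alamar Blue fluorescence read; GI50 derived against Day 7 0.1% DMSO (high) and Day 0 (low) controls.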

Menin-MLL = biological target: T1, Menin-MLL (Homo sapiens, UniProt O00255); test: Inhibitory activity against Menin-MLL binding (fluorescence polarization); details: 150 nM His-Menin, 15 nM FITC-MLL, 25°C for 60 min
T1 construct: His-Menin (M1-L615 end); purchased BIORTUS BP9210
T1 sequence (O00255 1-615 isoform O00255-1): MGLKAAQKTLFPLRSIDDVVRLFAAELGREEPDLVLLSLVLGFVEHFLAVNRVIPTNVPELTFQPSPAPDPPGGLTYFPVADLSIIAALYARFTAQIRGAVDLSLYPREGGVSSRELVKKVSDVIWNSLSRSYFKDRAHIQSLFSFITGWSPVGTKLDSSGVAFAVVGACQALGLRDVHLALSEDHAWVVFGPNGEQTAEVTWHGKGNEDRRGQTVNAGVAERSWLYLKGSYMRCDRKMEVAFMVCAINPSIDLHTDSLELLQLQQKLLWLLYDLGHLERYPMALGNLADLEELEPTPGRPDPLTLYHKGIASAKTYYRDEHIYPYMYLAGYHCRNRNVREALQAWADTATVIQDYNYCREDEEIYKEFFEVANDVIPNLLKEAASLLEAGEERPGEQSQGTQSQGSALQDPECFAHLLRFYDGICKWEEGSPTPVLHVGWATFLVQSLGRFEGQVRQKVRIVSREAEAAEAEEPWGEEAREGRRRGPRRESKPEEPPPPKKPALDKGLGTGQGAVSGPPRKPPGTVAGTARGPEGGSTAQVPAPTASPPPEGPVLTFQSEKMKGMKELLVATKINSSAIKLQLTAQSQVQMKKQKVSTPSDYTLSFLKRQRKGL
Procedure, shortened: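 His-Menin (M1-L615, 150 nM) preincubated with compound 15 min at 25 °C in HEPES pH 7.5, 50 mM NaCl, 1 mM DTT, 0.01% BSA, then 15 nM FITC-MLL4-43 peptide added for 60 min at 25 °C. Fluorescence polarization read; IC50 from 4-parameter logistic fit, duplicates.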

KG-1a (wild-type MLL) = test: Inhibition of proliferation of human tumor cells (Alamar Blue, 7 days), KG-1a control cell line; format: cell-based; details: 168 h, KG-1a cells (wild-type MLL, control cell line), method calls the value GI50
Procedure, shortened: as §1

[2] = test system: MOLM-13 (carrying MLL-AF9); test: Inhibition of proliferation of human tumor cells (Alamar Blue, 7 days), MOLM-13; format: cell-based; details: Homo sapiens, MOLM-13 cells (carrying MLL-AF9), method calls the value GI50
Procedure, shortened: as §1

[3] = fluorescence polarization, read-out: Menin-MLL IC50

IC50 [1] [nM] | IC50 (KG-1a (wild-type MLL)) [nM] | IC50 (Menin-MLL; [3]) [nM] | IC50 ([2]; 168 h) [nM] | Structure (SMILES) | IC50 (Menin-MLL; Menin-MLL IC50, fluorescence polarization) [nM] | IC50 ([2]; MOLM-13, 168 h) [nM] | IC50 (Menin-MLL; read-out: Menin-MLL IC50, fluorescence polarization) [nM]
5 | 13000 | 4.3 | 8.6 | Cc1nc(F)c2c(-c3ccc(F)cc3C(=O)N3CCOC[C@H]3C)cc(C3CN([C@H](CN4CCN(C)CC4)C(C)C)C3)cn12 [Example 368-2, (3R)-4-[5-fluoro-2-(1-fluoro-3-methyl-6-{1-[(2S)-3-methyl-1-(4-methylpiperazin-1-yl)butan-2-yl]azacyclobutan-3-yl}imidazo[1,5-a]pyridin-8-yl)benzoyl]-3-methylmorpholine] |  |  | 
1.1 | > 20000 | 1.9 | 4.3 | CCN(C(=O)c1cc(F)ccc1-c1cc(C2CN([C@H](CCCN3CCN(CCO)CC3)C(C)C)C2)cn2c(C)ncc12)C(C)C [Example 398, N-ethyl-5-fluoro-2-(6-{1-[(3R)-6-[4-(2-hydroxyethyl)piperazin-1-yl]-2-methylhexan-3-yl]azacyclobutan-3-yl}-3-methylimidazo[1,5-a]pyridin-8-yl)-N-(isopropyl)benzamide] |  |  | 
17 | 20000 | 13.8 | 31 | CC(=O)N1CCC([C@H](C)N2CC(c3cc(-c4ccc(F)cc4C(=O)N4CCOC[C@H]4C)c4c(F)nc(C)n4c3)C2)CC1 [Example 257-2, 1-{4-[(1S)-1-[3-(1-fluoro-8-{4-fluoro-2-[(3R)-3-methylmorpholin-4-carbonyl]phenyl}-3-methylimidazo[1,5-a]pyridin-6-yl)azacyclobutan-1-yl]ethyl]piperidin-1-yl}ethan-1-one] |  |  | 
2.4 | 20000 | 2.6 | 5.1 | COC1CCN(CCCC(C(C)C)N2CC(c3cc(-c4ccc(F)cc4C(=O)N4CCOCC4C)c4c(F)nc(C)n4c3)C2)C1 (stereo not drawn) [Example 201-1] |  |  | 
3.2 | 20000 | 4.3 | 10.2 | COCCN(C)CCC[C@H](C(C)C)N1CC(c2cc(-c3ccc(F)cc3C(=O)N3CCOC[C@H]3C)c3c(F)nc(C)n3c2)C1 [Example 200-1] |  |  | 
4.7 | 20000 | 6 | 12 | CNC(=O)N1CCC([C@H](C)N2CC(c3cc(-c4ccc(F)cc4C(=O)N4CCOC[C@H]4C)c4c(F)nc(C)n4c3)C2)CC1 [Example 264-2] |  |  | 
1.8 | 20000 | 4.3 | 11 | CO[C@@H]1CCN(CCC[C@H](C(C)C)N2CC(c3cc(-c4ccc(F)cc4C(=O)N4CCOC[C@H]4C)c4c(F)nc(C)n4c3)C2)C1 [Example 202] |  |  | 
4.3 | 20000 | 5.2 | 28 | COCCN(C)CCC[C@H](C(C)C)N1CC(c2cc(-c3ccc(F)cc3C(=O)N3[C@H](C)COC[C@H]3C)c3cnn(C)c3c2)C1 [Example 186-2, [(4R)-4-[3-(4-{2-[(3R,5R)-3,5-dimethylmorpholin-4-carbonyl]-4-fluorophenyl}-1-methyl-1H-indazol-6-yl)azacyclobutan-1-yl]-5-methylhexyl](2-methoxyethyl)methylamine] |  |  | 
2.2 | 3600 | 10 | 10 | COCCN(C)CCCC(C(C)C)N1CC(c2cc(-c3ccc(F)cc3C(=O)N(CC(F)F)C(C)C)c3c(F)nc(C)n3c2)C1 (stereo not drawn) [Example 142, N-(2,2-difluoroethyl)-5-fluoro-2-[1-fluoro-6-(1-{6-[(2-methoxyethyl)(methyl)amino]-2-methylhexan-3-yl}azacyclobutan-3-yl)-3-methylimidazo[1,5-a]pyridin-8-yl]-N-(isopropyl)benzamide] |  |  | 
2.8 | 18000 | 4.8 | 11.2 | COC1CCN(CCC[C@H](C(C)C)N2CC(c3cc(-c4ccc(F)cc4C(=O)N4CCOC[C@H]4C)c4c(F)nc(C)n4c3)C2)CC1 [Example 204, (3R)-4-[5-fluoro-2-(1-fluoro-6-{1-[(3R)-6-(4-methoxypiperidin-1-yl)-2-methylhexan-3-yl]azacyclobutan-3-yl}-3-methylimidazo[1,5-a]pyridin-8-yl)benzoyl]-3-methylmorpholine] |  |  | 
1.6 | 20000 | 3.3 | 7.3 | CCN1CCN(CCC[C@H](C(C)C)N2CC(c3cc(-c4ccc(F)cc4C(=O)N4CCOC[C@H]4C)c4c(F)nc(C)n4c3)C2)CC1 [Example 277] |  |  | 
8.6 | 20000 | 12.8 | 25 | CC(=O)N1CCN(CCC[C@H](C(C)C)N2CC(c3cc(-c4ccc(F)cc4C(=O)N4CCOC[C@H]4C)c4c(F)nc(C)n4c3)C2)CC1 [Example 265] |  |  | 
6.6 | 20000 | 9 | 9.6 | Cc1nc(F)c2c(-c3ccc(F)cc3C(=O)N3[C@H](C)COC[C@H]3C)cc(C3CN(CC4CCOCC4)C3)cn12 [Example 208] |  |  | 
2.8 | 20000 | 6.5 | 7.7 | CO[C@H]1CCCN(CCC[C@H](C(C)C)N2CC(c3cc(-c4ccc(F)cc4C(=O)N4CCOC[C@H]4C)c4c(F)nc(C)n4c3)C2)C1 [Example 306] |  |  | 
9.6 | 20000 | 8.5 | 23 | CCNC(=O)N1CCC(CN2CC(c3cc(-c4ccc(F)cc4C(=O)N4CCOC[C@H]4C)c4c(F)nc(C)n4c3)C2)CC1 [Example 261] |  |  | 
3 | 20000 | 6 | 7.6 | CCS(=O)(=O)N[C@H]1CC[C@H](CN2CC(c3cc(-c4ccc(F)cc4C(=O)N(CC(F)F)C(C)C)c4cnc(C)n4c3)C2)CC1 [Example 138] |  |  | 
5.5 | 7400 | 6 | 33 | CCN(C(=O)c1cc(F)ccc1-c1cc(C2CCN(Cc3ccc(-c4cc(OC)c(OC)nn4)cc3)C2)cn2c(C)ncc12)C(C)C (stereo not drawn) [Example 83] |  |  | 
4.1 | > 20000 | 2.6 | 5.4 | Cc1nc(F)c2c(-c3ccc(F)cc3C(=O)N3CCOC[C@H]3C)cc(C3CN([C@H](CCCN4C[C@H]5C[C@@H]4CO5)C(C)C)C3)cn12 [Example 353, (1R,4R)-5-[(4R)-4-[3-(1-fluoro-8-{4-fluoro-2-[(3R)-3-methylmorpholin-4-carbonyl]phenyl}-3-methylimidazo[1,5-a]pyridin-6-yl)azacyclobutan-1-yl]-5-methylhexyl]-2-oxa-5-azabicyclo[2.2.1]heptane] |  |  | 
2 | 20000 | 3.1 | 24 | Cc1nc(F)c2c(-c3ccc(F)cc3C(=O)N3CCOC[C@H]3C)cc(C3CN([C@H](CCCN4CCC[C@H](O)C4)C(C)C)C3)cn12 [Example 293] |  |  | 

Structure (SMILES) | IC50 [1] [nM] | IC50 (KG-1a (wild-type MLL)) [nM] | IC50 (Menin-MLL; [3]) [nM] | IC50 ([2]; 168 h) [nM] | IC50 (Menin-MLL; Menin-MLL IC50, fluorescence polarization) [nM] | IC50 ([2]; MOLM-13, 168 h) [nM] | IC50 (Menin-MLL; read-out: Menin-MLL IC50, fluorescence polarization) [nM]
CCN(C(=O)c1cc(F)ccc1-c1cc(C2(F)CN(C(=O)C3NC4CCC3CC4)C2)cn2c(C)ncc12)C(C)C [Example 75, N-ethyl-5-fluoro-2-(6-{3-fluoro-1-[(1R,3S,4S)-2-azabicyclo[2.2.2]octan-3-carbonyl]azacyclobutan-3-yl}-3-methylimidazo[1,5-a]pyridin-8-yl)-N-(isopropyl) benzamide] | 25 | 20000 |  |  | 17.5 | 78 | 
CCS(=O)(=O)N[C@H]1CC[C@H](CN2CC(c3cc(-c4ccc(F)cc4C(=O)N4[C@H](C)COC[C@H]4C)c4c(F)nc(C)n4c3)C2)CC1 [Example 197, N-[(1r,4r)-4-{[3-(8-{2-[(3R,5R)-3,5-dimethylmorpholin-4-carbonyl]-4-fluorophenyl}-1-fluoro-3-methylimidazo[1,5-a]pyridin-6-yl)azacyclobutan-1-yl]methyl}cyclohexyl]ethan-1-sulfonamide] | 4 | 20000 |  |  |  | 10.2 | 6.5

From patent EP4782453A1 (Beyang Therapeutics Co., Ltd., priority 2023, dated 2025)
